Experimental data taken from ChEMBL document CHEMBL1141399, “Synthesis and evaluation of isomeric (17alpha,20E)-11beta-methoxy-21-(trifluoromethylphenyl)-19-norpregna-1,3,5(10),20-tetraene-3,17beta-diols as ERalpha-hormone binding domain ligands: effect of the methoxy group on receptor binding and uterotrophic growth” (J Med Chem, 2007).
The source made the active and inactive calls. The calls are words filed in the database; no cut-off is given here.

Experiments:
[1] = target: T1, Estrogen receptor (Homo sapiens) (UniProt P03372); test: Displacement of [3H]estradiol from ERalpha isolated from BL21 cells relative to estradiol at 25 degC; type: cell-free
T1 sequence (whole entry): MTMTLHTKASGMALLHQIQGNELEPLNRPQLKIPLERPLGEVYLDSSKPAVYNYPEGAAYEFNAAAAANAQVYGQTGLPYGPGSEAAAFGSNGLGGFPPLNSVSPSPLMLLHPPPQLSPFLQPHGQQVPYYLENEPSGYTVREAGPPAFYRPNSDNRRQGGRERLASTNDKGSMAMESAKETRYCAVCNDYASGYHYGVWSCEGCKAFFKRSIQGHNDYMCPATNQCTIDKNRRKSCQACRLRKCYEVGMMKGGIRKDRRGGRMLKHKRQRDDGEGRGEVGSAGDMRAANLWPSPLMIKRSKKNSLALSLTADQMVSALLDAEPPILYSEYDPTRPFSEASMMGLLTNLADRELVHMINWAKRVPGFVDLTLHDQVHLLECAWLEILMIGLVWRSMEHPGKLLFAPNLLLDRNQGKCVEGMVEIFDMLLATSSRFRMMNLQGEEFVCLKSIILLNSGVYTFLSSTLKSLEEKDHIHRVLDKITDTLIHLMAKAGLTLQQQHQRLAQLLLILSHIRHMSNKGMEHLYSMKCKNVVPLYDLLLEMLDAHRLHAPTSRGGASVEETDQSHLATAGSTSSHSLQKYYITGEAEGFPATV

Rattus norvegicus = species on record: Rattus norvegicus; test: Estrogenic efficacy in rat by immature rat uterotrophic growth assay; type: functional, organism-based

SMILES | RBA [1] | Activity (Rattus norvegicus)
C[C@]12CC[C@@H]3c4ccc(O)cc4CC[C@H]3[C@@H]1CC[C@@]2(O)/C=C/c1ccccc1C(F)(F)F | 223 | 
C[C@]12CC[C@@H]3c4ccc(O)cc4CC[C@H]3[C@@H]1CC[C@@]2(O)/C=C/c1ccc(C(F)(F)F)cc1 | 8 | 
C[C@]12CC[C@@H]3c4ccc(O)cc4CC[C@H]3[C@@H]1CC[C@@]2(O)/C=C/c1cccc(C(F)(F)F)c1 | 75 | 

The next lines start with results.

RBA [1] | SMILES | Activity (Rattus norvegicus)
65 | CO[C@H]1C[C@@]2(C)[C@@H](CC[C@@]2(O)/C=C/c2cccc(C(F)(F)F)c2)[C@@H]2CCc3cc(O)ccc3[C@H]21 | 
15 | CO[C@H]1C[C@@]2(C)[C@@H](CC[C@@]2(O)/C=C/c2ccccc2)[C@@H]2CCc3cc(O)ccc3[C@H]21 | 
18 | C[C@]12CC[C@@H]3c4ccc(O)cc4CC[C@H]3[C@@H]1CC[C@@]2(O)/C=C/c1ccccc1 | inactive
5 | CO[C@H]1C[C@@]2(C)[C@@H](CC[C@@]2(O)/C=C/c2ccc(C(F)(F)F)cc2)[C@@H]2CCc3cc(O)ccc3[C@H]21 | 
212 | CO[C@H]1C[C@@]2(C)[C@@H](CC[C@@]2(O)/C=C/c2ccccc2C(F)(F)F)[C@@H]2CCc3cc(O)ccc3[C@H]21 | 
